Test results taken from PubChem BioAssay AID330 (DTP/NCI, 2004).
“And” between values parts separate entries of the source, which are not always exact repeats. Equal entries are not always repeated. Toxic doses and inconclusive results are not listed.

System: P388 leukemia ip, CD2F1 mice, survival T/C
Assay: NCI In Vivo Anticancer Drug Screen. Data for tumor model P388 Leukemia (intraperitoneal) in CD2F1 (CDF1) mice
Conditions: endpoint: median survival time, higher = longer survival
Summary of the method: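 Mice carrying the transplanted tumor received test compound or vehicle. Survival was recorded in each group, and the value is the treated-group measurement divided by that of the vehicle-treated control group.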

[1] = dose: 100.0 mg/kg/injection, schedule: Q01DX009 (ip), vehicle: saline with Tween-80
[2] = dose: 60.0 mg/kg/injection, schedule: Q01DX005 (ip), vehicle: Klucel (hydroxypropylcellulose) (HPC)
[3] = dose: 120.0 mg/kg/injection, schedule: Q01DX005 (ip), vehicle: Klucel (hydroxypropylcellulose) (HPC)
[4] = dose: 240.0 mg/kg/injection, schedule: Q01DX005 (ip), vehicle: Klucel (hydroxypropylcellulose) (HPC)
[5] = dose: 100.0 mg/kg/injection, schedule: Q01DX009 (ip), vehicle: saline
[6] = dose: 50.0 mg/kg/injection, schedule: Q04DX003 (ip), vehicle: saline with Tween-80
[7] = dose: 100.0 mg/kg/injection, schedule: Q04DX003 (ip), vehicle: saline with Tween-80
[8] = dose: 100.0 mg/kg/injection, schedule: Q04DX003 (ip), vehicle: saline
[9] = dose: 200.0 mg/kg/injection, schedule: Q04DX003 (ip), vehicle: saline with Tween-80
[10] = dose: 200.0 mg/kg/injection, schedule: Q04DX003 (ip), vehicle: saline
[11] = dose: 400.0 mg/kg/injection, schedule: Q04DX003 (ip), vehicle: saline with Tween-80
[12] = dose: 400.0 mg/kg/injection, schedule: Q04DX003 (ip), vehicle: saline
[13] = dose: 60.0 mg/kg/injection, schedule: Q01DX005 (ip), vehicle: saline with Tween-80
[14] = dose: 120.0 mg/kg/injection, schedule: Q01DX005 (ip), vehicle: saline with Tween-80
[15] = dose: 240.0 mg/kg/injection, schedule: Q01DX005 (ip), vehicle: saline with Tween-80
[16] = dose: 50.0 mg/kg/injection, schedule: Q01DX009 (ip), vehicle: Klucel (hydroxypropylcellulose) (HPC)
[17] = dose: 100.0 mg/kg/injection, schedule: Q01DX009 (ip), vehicle: Klucel (hydroxypropylcellulose) (HPC)
[18] = dose: 50.0 mg/kg/injection, schedule: Q01DX005 (ip), vehicle: Klucel (hydroxypropylcellulose) (HPC)
[19] = dose: 50.0 mg/kg/injection, schedule: Q01DX009 (ip), vehicle: saline

In the case of `COc1cc2c3cc1Oc1cc(ccc1O)C[C@@H]1c4c(cc(OC)c(O)c4Oc4ccc(cc4)C[C@@H]3[N+](C)(C)CC2)CC[N+]1(C)C`, the T/C (dose: 0.06 mg/kg/injection, schedule: Q01DX009 (ip), vehicle: saline with Tween-80) is reported as 96 % of control, the T/C (dose: 0.13 mg/kg/injection, schedule: Q01DX009 (ip), vehicle: saline with Tween-80) is reported as 92 % of control and the T/C (dose: 0.25 mg/kg/injection, schedule: Q01DX009 (ip), vehicle: saline with Tween-80) is reported as 89 % of control.

With `CCn1c2ccccc2c2cc(NC(=O)N(CCCl)N=O)ccc21` the T/C (dose: 6.25 mg/kg/injection, schedule: Q01DX009 (ip), vehicle: saline with Tween-80) was 119 % of control, the T/C (dose: 12.5 mg/kg/injection, schedule: Q01DX009 (ip), vehicle: saline with Tween-80) was 122 % of control and the T/C [1] was 189 % of control.

In the case of `CC(NNC(=S)N1CCCC1)c1ccc2ccccc2n1` (stereo not given), the T/C (dose: 50.0 mg/kg/injection, schedule: Q01DX005 (ip), vehicle: saline with Tween-80) is reported as 94 % of control, the T/C (dose: 100.0 mg/kg/injection, schedule: Q01DX005 (ip), vehicle: saline with Tween-80) is reported as 94 % of control and the T/C (dose: 200.0 mg/kg/injection, schedule: Q01DX005 (ip), vehicle: saline with Tween-80) is reported as 94 % of control.

With `CC(C)(C)SS(=O)(=O)C(C)(C)C` the T/C [2] was 103 % of control, the T/C [3] was 106 % of control and the T/C [4] was 105 % of control.

For `CCN(CCCN(C)C)c1ccc(/C=C/c2ccnc3ccccc23)cc1`, the T/C [5] was 108 % of control.

For `CC1(C)OCC2OC=CC(=O)C2O1` (stereo not given), the T/C [6] was 108 % of control, the T/C [7] was 101 % of control and the T/C [8] was 108 % of control. For the same compound, the T/C [9] was 111 % of control, the T/C [10] was 104 % of control and the T/C [11] was 120 % of control. For the same compound, the T/C [12] was 124 % of control.

`COCOc1c(OC)c(C2(O)C(=O)N(C)c3ccccc32)c(OCOC)c(OC)c1C1(O)C(=O)N(C)c2ccccc21` (stereo not given) was tested, and the T/C [13] was 100 % of control, the T/C [14] was 89 % of control and the T/C [15] was 88 % of control.

For `C[n+]1c(-c2ccc(/C=N\Nc3nnc(S)n3/N=C/c3ccc(-c4cn5ccccc5[n+]4C)cc3)cc2)cn2ccccc21`, the T/C (dose: 0.23 mg/kg/injection, schedule: Q01DX005 (ip), vehicle: saline with Tween-80) was 101 % of control, the T/C (dose: 0.47 mg/kg/injection, schedule: Q01DX005 (ip), vehicle: saline with Tween-80) was 92 % of control and the T/C (dose: 0.94 mg/kg/injection, schedule: Q01DX005 (ip), vehicle: saline with Tween-80) was 95 % of control. For the same compound, the T/C (dose: 1.88 mg/kg/injection, schedule: Q01DX005 (ip), vehicle: saline with Tween-80) was 100 % of control.

With `CC1(C)C2CCC1(C)C(OC(=O)/C=C/c1ccc(O)c(O)c1)C2` (stereo not given) the T/C (dose: 12.5 mg/kg/injection, schedule: Q01DX009 (ip), vehicle: Klucel (hydroxypropylcellulose) (HPC)) was 100 % of control, the T/C (dose: 25.0 mg/kg/injection, schedule: Q01DX009 (ip), vehicle: Klucel (hydroxypropylcellulose) (HPC)) was 98 % of control and the T/C [16] was 87 % of control. The T/C [17] was 97 % of control.

For `Brc1cccc2c(SCCCCCCSc3c4ccccc4nc4c(Br)cccc34)c3ccccc3nc12`, the T/C [2] was 93 % of control, the T/C [3] was 92 % of control and the T/C [4] was 93 % of control.

For `C=CC(C)(C)c1ccc(O)c(CC=C(C)C)c1`, the T/C (dose: 12.5 mg/kg/injection, schedule: Q01DX005 (ip), vehicle: Klucel (hydroxypropylcellulose) (HPC)) was 100 % of control, the T/C (dose: 25.0 mg/kg/injection, schedule: Q01DX005 (ip), vehicle: Klucel (hydroxypropylcellulose) (HPC)) was 102 % of control and the T/C [18] was 102 % of control.

For `CC12CCC3C(C1)C(C(=O)O2)C(=O)OC3(C)C` (stereo not given), the T/C [16] was 93 % of control, the T/C [17] was 101 % of control and the T/C (dose: 200.0 mg/kg/injection, schedule: Q01DX009 (ip), vehicle: Klucel (hydroxypropylcellulose) (HPC)) was 97 % of control.

`CCOC(=O)C(C(=O)OCC)C(C)(C)C` was tested, and the T/C [19] was 100 % of control, the T/C [5] was 102 % of control and the T/C (dose: 200.0 mg/kg/injection, schedule: Q01DX009 (ip), vehicle: saline) was 109 % of control. The T/C (dose: 400.0 mg/kg/injection, schedule: Q01DX009 (ip), vehicle: saline) was 109 % of control.

For `NC(CCCCNC(=O)CCCCCCCCC(=O)NCCCCC(N)C(=O)O)C(=O)O` (stereo not given), the T/C (dose: 50.0 mg/kg/injection, schedule: Q01DX009 (ip), vehicle: suspension in saline) was 95 % of control, the T/C (dose: 100.0 mg/kg/injection, schedule: Q01DX009 (ip), vehicle: suspension in saline) was 105 % of control and the T/C (dose: 200.0 mg/kg/injection, schedule: Q01DX009 (ip), vehicle: suspension in saline) was 100 % of control.

With `NNC(=O)CS(=O)(=O)Nc1ncccn1` the T/C [18] was 100 % of control, the T/C (dose: 100.0 mg/kg/injection, schedule: Q01DX005 (ip), vehicle: Klucel (hydroxypropylcellulose) (HPC)) was 100 % of control and the T/C (dose: 200.0 mg/kg/injection, schedule: Q01DX005 (ip), vehicle: Klucel (hydroxypropylcellulose) (HPC)) was 100 % of control.

With `CCCC(N(C)C)P(=O)(O)O` (stereo not given) the T/C [8] was 105 % of control, the T/C [10] was 105 % of control and the T/C [12] was 100 % of control.

For `CCOC(=O)C1(c2ccccc2)C(=O)Oc2ccccc21` (stereo not given), the T/C (dose: 50.0 mg/kg/injection, schedule: Q01DX009 (ip), vehicle: saline with Tween-80) was 107 % of control, the T/C [1] was 124 % of control and the T/C (dose: 200.0 mg/kg/injection, schedule: Q01DX009 (ip), vehicle: saline with Tween-80) was 106 % of control.

`COC(=O)CCCCCCCCCCCCC1C=CCC1` (stereo not given) was tested, and the T/C (dose: 100.0 mg/kg/injection, schedule: Q01DX001 (ip), vehicle: saline) was 100 % of control, the T/C (dose: 200.0 mg/kg/injection, schedule: Q01DX001 (ip), vehicle: saline) was 104 % of control and the T/C (dose: 400.0 mg/kg/injection, schedule: Q01DX001 (ip), vehicle: saline) was 104 % of control.

With `CCn1cnc2c(SC)ncnc21` the T/C (dose: 12.5 mg/kg/injection, schedule: Q01DX009 (ip), vehicle: saline) was 100 % of control, the T/C (dose: 25.0 mg/kg/injection, schedule: Q01DX009 (ip), vehicle: saline) was 100 % of control and the T/C [19] was 95 % of control. For the same compound, the T/C (dose: 100.0 mg/kg/injection, schedule: Q04DX003 (ip), vehicle: other) was 100 % of control.

`O=c1c(-c2cccc(O)c2O)coc2cc(OC3OC(CO)C(O)C(O)C3O)ccc12` (stereo not given) was tested, and the T/C [13] was 100 % of control, the T/C [14] was 100 % of control and the T/C [15] was 97 % of control.

In the case of `CCOC(=O)CCC(NC(=O)c1ccc(NCc2ccc3nc(N)nc(N)c3c2C)cc1)C(=O)OCC` (stereo not given), the T/C (dose: 0.01 mg/kg/injection, schedule: Q01DX009 (ip), vehicle: saline + alcohol) is reported as 108 % of control and 109 % of control, the T/C (dose: 0.02 mg/kg/injection, schedule: Q01DX009 (ip), vehicle: saline + alcohol) is reported as 98 % of control and 113 % of control and the T/C (dose: 0.03 mg/kg/injection, schedule: Q01DX009 (ip), vehicle: saline + alcohol) is reported as 153 % of control and 162 % of control. The T/C (dose: 0.06 mg/kg/injection, schedule: Q01DX001 (ip), vehicle: saline + alcohol) was 100 % of control and 88 % of control, the T/C (dose: 0.06 mg/kg/injection, schedule: Q01DX009 (ip), vehicle: saline + alcohol) was 170 % of control and the T/C (dose: 0.13 mg/kg/injection, schedule: Q01DX001 (ip), vehicle: saline + alcohol) was 111 % of control and 117 % of control. The T/C (dose: 0.25 mg/kg/injection, schedule: Q01DX001 (ip), vehicle: saline + alcohol) was 109 % of control and 110 % of control.

With `CCCCN=C(N)N/N=C(\C)c1cccc2c1Cc1c(/C(C)=N/NC(N)=NCCCC)cccc1-2` the T/C (dose: 12.5 mg/kg/injection, schedule: Q04DX002 (ip), vehicle: saline with Tween-80) was 108 % of control.

`CCC1(C)CCC(C)(CC)c2c(C)cc(C(C)=O)cc21` (stereo not given) was tested, and the T/C [7] was 114 % of control, the T/C [9] was 97 % of control and the T/C [11] was 92 % of control.

In the case of `COc1c(Br)cc(/C=C(/C)[N+](=O)[O-])cc1Br`, the T/C (dose: 25.0 mg/kg/injection, schedule: Q04DX003 (ip), vehicle: saline with Tween-80) is reported as 112 % of control, the T/C [6] is reported as 106 % of control and the T/C [7] is reported as 122 % of control.
